According to PubChem BioAssay (NCI):
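How tested: cells in 96-well plates exposed to compound for 48 hours at five concentrations. GI50 is the concentration that inhibits growth by half. TGI is the concentration that stops growth completely.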

Legend:
Experiment in all cases: NCI-60 cell line screen, 48 h
[1] = test system: NCI-H23 lung
[2] = test system: PC-3 prostate
[3] = test system: ACHN renal
[4] = test system: 786-0 renal
[5] = test system: MDA-MB-231 breast
[6] = test system: SF-295 CNS
[7] = test system: HS 578T breast
[8] = test system: MCF7 breast
[9] = test system: OVCAR-8 ovarian
[10] = test system: HOP-62 NSCLC
[11] = test system: SK-MEL-28 melanoma
[12] = test system: SF-268 CNS
[13] = test system: HL-60(TB) leukemia
[14] = test system: LOX IMVI melanoma
[15] = test system: MALME-3M melanoma
[16] = test system: EKVX NSCLC
[17] = test system: TK-10 renal
[18] = test system: MDA-MB-435
[19] = test system: IGROV1 ovarian
[20] = test system: NCI/ADR-RES ovarian
[21] = test system: HCC-2998 colon
[22] = test system: DU-145 prostate
[23] = test system: OVCAR-5 ovarian
[24] = test system: CAKI-1 renal
[25] = test system: SK-OV-3 ovarian
[26] = test system: A498 renal
[27] = test system: UO-31 renal
[28] = test system: U251 CNS
[29] = test system: M14 melanoma
[30] = test system: CCRF-CEM leukemia
[31] = test system: OVCAR-3 ovarian
[32] = test system: NCI-H226 lung
[33] = test system: SF-539 CNS
[34] = test system: SK-MEL-5 melanoma
[35] = test system: SN12C renal
[36] = test system: BT-549 breast
[37] = test system: OVCAR-4 ovarian
[38] = test system: MOLT-4 leukemia
[39] = test system: RPMI-8226 leukemia
[40] = test system: HCT-15 colon
[41] = test system: UACC-62 melanoma
[42] = test system: HCT-116 colon
[43] = test system: NCI-H460 lung
[44] = test system: SR leukemia
[45] = test system: A549 NSCLC
[46] = test system: SNB-19 CNS
[47] = test system: SNB-75 CNS
[48] = test system: HOP-92 NSCLC
[49] = test system: KM12 colon
[50] = test system: SW-620 colon
[51] = test system: NCI-H522 lung
[52] = test system: COLO 205 colon
[53] = test system: RXF 393 renal
[54] = test system: HT29 colon
[55] = test system: SK-MEL-2 melanoma
[56] = test system: K-562 leukemia
[57] = test system: T-47D breast
[58] = test system: UACC-257 melanoma

Compound: COc1ccc(C2C=C(c3ccc4c(c3)OCO4)Oc3c2c(=O)oc2ccccc32)cc1OC (configuration not stated)
- TGI [1]: > 46.2 µM
- TGI [2]: > 100 µM
- TGI [3]: > 100 µM
- TGI [4]: > 100 µM
- TGI [5]: > 100 µM
- TGI [6]: > 100 µM
- TGI [7]: > 100 µM
- TGI [8]: > 100 µM
- TGI [9]: > 100 µM
- TGI [10]: > 100 µM
- TGI [11]: > 100 µM
- TGI [12]: > 100 µM
- TGI [13]: 0.6 µM
- TGI [14]: > 100 µM
- TGI [15]: > 100 µM
- TGI [16]: > 100 µM
- TGI [17]: > 78.1 µM
- TGI [18]: 0.529 µM
- TGI [19]: > 100 µM
- TGI [20]: > 100 µM
- TGI [21]: 2.26 µM
- TGI [22]: > 100 µM
- TGI [23]: > 100 µM
- TGI [24]: > 100 µM
- TGI [25]: > 69.6 µM
- TGI [26]: 7.21 µM
- TGI [27]: > 100 µM
- TGI [28]: > 100 µM
- TGI [29]: > 100 µM
- TGI [30]: > 100 µM
- TGI [31]: 15.5 µM
- TGI [32]: 9.6 µM
- TGI [33]: 1.81 µM
- TGI [34]: > 100 µM
- TGI [35]: > 100 µM
- TGI [36]: > 100 µM
- TGI [37]: > 100 µM
- TGI [38]: > 100 µM
- TGI [39]: 5.29 µM
- TGI [40]: > 100 µM
- TGI [41]: > 100 µM
- TGI [42]: > 100 µM
- TGI [43]: > 100 µM
- TGI [44]: 0.594 µM
- TGI [45]: > 100 µM
- TGI [46]: > 100 µM
- TGI [47]: 34.2 µM
- TGI [48]: > 73.1 µM
- TGI [49]: > 100 µM
- TGI [50]: > 100 µM
- TGI [51]: > 66.3 µM
- TGI [52]: > 100 µM
- TGI [53]: > 45.5 µM
- TGI [54]: > 85.5 µM

Compound: c1ccc2cc(C[n+]3ccn(CCCCCCCCCCn4cc[n+](Cc5ccc6ccccc6c5)c4)c3)ccc2c1
- GI50 [1]: 0.445 µM
- TGI [1]: 3.35 µM
- GI50 [2]: 1.19 µM
- TGI [2]: 7.3 µM
- GI50 [3]: 6.17 µM
- TGI [3]: 80.3 µM
- GI50 [4]: 5.33 µM
- TGI [4]: 32.6 µM
- GI50 [55]: 1.72 µM
- TGI [55]: 5.2 µM
- GI50 [5]: 1.33 µM
- TGI [5]: 5.3 µM
- GI50 [6]: 0.554 µM
- TGI [6]: 5.44 µM
- GI50 [56]: 0.602 µM
- TGI [56]: 2.97 µM
- GI50 [7]: 1.03 µM
- TGI [7]: 3.63 µM
- GI50 [8]: 0.554 µM
- TGI [8]: 2.3 µM
- GI50 [9]: 2.18 µM
- TGI [9]: 13.1 µM
- GI50 [10]: 1.09 µM
- TGI [10]: 7.24 µM
- GI50 [11]: 1.3 µM
- TGI [11]: 5.66 µM
- GI50 [12]: 0.61 µM
- TGI [12]: 12.3 µM
- GI50 [13]: 1.25 µM
- TGI [13]: 2.97 µM
- GI50 [14]: 1.21 µM
- TGI [14]: 3.66 µM
- GI50 [15]: 0.313 µM
- TGI [15]: 1.48 µM
- GI50 [16]: 0.442 µM
- TGI [16]: 9.07 µM
- GI50 [17]: 3.28 µM
- TGI [17]: 16.9 µM
- GI50 [18]: 0.819 µM
- TGI [18]: 5.43 µM
- GI50 [19]: 1.11 µM
- TGI [19]: 3.08 µM
- GI50 [20]: 29.4 µM
- TGI [20]: > 100 µM
- GI50 [21]: 1.37 µM
- TGI [21]: 5.13 µM
- GI50 [57]: 0.491 µM
- TGI [57]: 4.74 µM
- GI50 [22]: 1.06 µM
- TGI [22]: 14.1 µM
- GI50 [23]: 1.87 µM
- TGI [23]: 9.48 µM
- GI50 [25]: 1.36 µM
- TGI [25]: 6.39 µM
- GI50 [26]: 0.0129 µM
- TGI [26]: 2.77 µM
- GI50 [27]: 6.14 µM
- TGI [27]: > 100 µM
- GI50 [29]: 2.76 µM
- TGI [29]: 15.7 µM
- GI50 [30]: 1.22 µM
- TGI [30]: 2.97 µM
- GI50 [31]: 1.95 µM
- TGI [31]: 7.09 µM
- GI50 [32]: 0.918 µM
- TGI [32]: 13.6 µM
- GI50 [33]: 1.19 µM
- TGI [33]: 6.54 µM
- GI50 [37]: 0.988 µM
- TGI [37]: 9.88 µM
- GI50 [38]: 1.36 µM
- TGI [38]: 3 µM
- GI50 [39]: 0.737 µM
- TGI [39]: 4.17 µM
- GI50 [40]: 3.76 µM
- TGI [40]: > 100 µM
- GI50 [41]: 0.646 µM
- TGI [41]: 3.08 µM
- GI50 [42]: 1.55 µM
- TGI [42]: 15.1 µM
- GI50 [43]: 0.376 µM
- TGI [43]: 10.1 µM
- GI50 [48]: 0.396 µM
- TGI [48]: 2.96 µM
- GI50 [49]: 0.727 µM
- TGI [49]: 2.73 µM
- GI50 [58]: 1.37 µM
- TGI [58]: 5.58 µM
- GI50 [50]: 1.57 µM
- TGI [50]: 11.2 µM
- GI50 [51]: 0.436 µM
- TGI [51]: 1.94 µM
- GI50 [52]: 0.411 µM
- TGI [52]: 1.68 µM
- GI50 [53]: 0.822 µM
- TGI [53]: 3.72 µM
- GI50 [54]: 0.715 µM
- TGI [54]: 4.74 µM
